“Also recorded” adds a separate entry of the source.
Columns and labels:
BRD4 [1] = biological target: T1, BRD4 (Homo sapiens, UniProt O60885); test: Summary of BRD4 degradation by CURE-PRO pairs, estimated from Western Blot or WES; type: cell-based; set-up: endogenous in cells; conditions: for Degradation of BRD4, combination with CRBN ligand 8046: Table 1, aryl-boronic acid BRD4 ligand + 8046; for Degradation of BRD4, combination with CRBN ligand 8047: Table 1, aryl-boronic acid BRD4 ligand + 8047; for Degradation of BRD4, combination with CRBN ligand 8066: Table 1, aryl-boronic acid BRD4 ligand + 8066; for Degradation of BRD4, combination with CRBN ligand 8048: Table 4, aromatic 1,2-diol BRD4 ligand + 8048
Procedure: (§1) Namalwa, Ramosm HeLa, MCF7, or HT29 HCT116 cells (2.5-3×10^6) were treated for 24 hours with the indicated compounds solubilized in DMSO. The cells were washed in ice-cold PBS and were then lysed in RIPA lysis buffer (150 mM NaCl, 5 mM EDTA, 1% NP-40, 0.5% sodium deoxycholate, 0.1% SDS, 50 mM Tris, pH 8.0.) with Roche protease inhibitor complete cocktail and phosphatase inhibitors (10 mM sodium fluoride, 10 mM sodium pyrophosphate, 1 mM sodium orthovanadate and 20 mM β-glycerophosphate). The total protein concentrations were determined by Bradford Protein Assay (Pierce) and 10-20 μg of protein was loaded onto 4-15% Tris-Glycine gradient gels (Biorad). After standard gel electrophoresis, the separated proteins were transferred to PVDF membrane by wet transfer. The immunoblots were then blocked for 1 hour in 5% skim milk in TBST or 5% BSA in TBST, according to manufacturer's instructions, before an overnight incubation at 4° C. with indicated antibodies and membranes. Membranes were then incubated with the appropriate horseradish peroxidase-conjugated secondary antibodies (1:5,000 dilution) for 1 h at room temperature and the bands were visualized using the Clarity Max Western ECL Substrate (Biorad) and the ChemiDoc Imaging System (Biorad). Signal was detected with ECL Western Blotting Substrate (Pierce) and X-ray film processed with a Konica SRX-101 X-ray film processor or captured by Bio-Rad's Chemidoc Imaging system.
WES Simple analysis was performed on WES system (ProteinSimple-Biotechne) according to the manufacturer's instructions. Total protein concentrations of cell lysates were determined by the Pierce BCA kit (Thermo Fisher). 3 μL of 0.3 μg/μL of the protein lysate was loaded onto a 12- to 230-kDa WES assay plate (ProteinSimple) where 300 nL sample was withdrawn through a capillary, subjected to electrophoretic separation of proteins by size, and followed by the simultaneous, HRP-based detection of proteins using the Anti-Rabbit Detection Module (Proteinsimple: #DM-001). The electropherograms were checked then the automatic peak detection was manually corrected if it was required.
A black check mark indicates efficacy of 30% to 70% or higher protein degradation.

BRD4 [2] = biological target: T1, BRD4; test: CURE-PRO-mediated BRD4 degradation in HeLa cells, Western blot; type: cell-based; set-up: endogenous in cells; host or cells: HeLa; conditions: 24 h
Procedure: All cell lines were purchased from ATCC or DSMZ and grown at 37° C. with 5% CO2. Human HeLa cells were cultured in complete growth medium (Dulbecco's modified Eagle's medium (DMEM) supplemented with 10% FBS); MCF7 cells were cultured in complete growth medium (Dulbecco's modified Eagle's medium (DMEM) supplemented with 10% FBS and 0.01 mg/ml human recombinant insulin (Sigma Aldrich); Namalwa and Ramos cells were cultured in complete growth medium (RPMI 1640 medium supplemented with 10% FBS); HCT116 and HT29 cells were cultured in complete growth medium (McCoy's 5a Medium supplemented with 10% FBS). For cellular degradation of BRD4 studies cells were seeded in a 12-well plate at 70-80% confluency, allowed to attach overnight, and incubated with the indicated compounds for the indicated time. When indicated, a 15-minute pretreatment with 10 μM pomalidomide, 10 μM VHL298, 10 μM Nutlin3a, 1 μM MG-132 or 1 μM Carfilzomib was performed before the addition of CURE-PROs. For washout studies, after CURE-PRO treatment, media was aspirated and incubated with complete medium for the indicated time before lysis.
as §1
HeLa cells (2.5×10^6) were treated for 24 hours with the sample compounds solubilized in DMSO. Compounds were added at 1-10 μM each. Standardized protein samples were electrophoresed and imaged as described in the immunoblotting description above. FIGS. 6-18 depicts the CURE-PRO-mediated BRD4 degradation for BRD monomers (JQ1 derivatives comprising of catechol linkers), and CRBN ligands, 8048 and 8049 (pomalidomide derivatives comprising boronic acid linkers) combined in a 1:1 ratio.
HeLa cells (2.5×10^6) were treated for 24 hours with the compounds solubilized in DMSO. The compounds were added at 10 μM each. Standardized protein samples were electrophoresed and imaged as described in the immunoblotting section above. FIGS. 23-27 depicts the CURE-PRO-mediated BRD4 degradation for BRD monomers (JQ1 derivatives comprising of boronic acid linkers), and CRBN ligands, 8046, 8047 and 8066 (pomalidomide derivatives comprising diol linkers) combined in a 1:1 ratio.
HeLa cells (2.5×10^6) were treated for 24 hours with the compounds solubilized in DMSO. Compounds were added at 10 μM and 100 μM each. Standardized protein samples were electrophoresed and imaged as described in the immunoblotting section above.
HeLa cells (2.5×10^6) were treated for 24 hours with the compounds solubilized in DMSO. Compounds were added at 1 nM-1 μM each. […]

[3] = co-treated 1:1 with CRBN ligand 8047, HeLa, 10 μM each
[4] = co-treated 1:1 with CRBN ligand 8066, HeLa, 10 μM each
[5] = BRD4 monomer alone, HeLa, 1-10 μM
[6] = co-treated 1:1 with CRBN ligand 8048, HeLa, 1-10 μM each
[7] = co-treated 1:1 with CRBN ligand 8049, HeLa, 1-10 μM each

With `COc1ccc2c(c1)C(c1ccc(Cl)cc1)=N[C@@H](CC(=O)NCCCNC(=O)c1cccc(B(O)O)c1)c1nnc(C)n1-2` [BRD-E4] the “Degradation of BRD4, combination with CRBN ligand 8046” value (BRD4 [1]) was “√ (A black check mark indicates efficacy of 30% to 70% or higher protein degradation)”, the “Degradation of BRD4, combination with CRBN ligand 8047” value (“Degradation … with CRBN ligand 8047” below) (BRD4 [1]) was “√ (A black check mark indicates efficacy of 30% to 70% or higher protein degradation)” and the “Degradation of BRD4, combination with CRBN ligand 8066” value (“Degradation … with CRBN ligand 8066” for short) (BRD4 [1]) was “√ (A black check mark indicates efficacy of 30% to 70% or higher protein degradation)”. The BRD4 degradation (BRD4 [2]; co-treated 1:1 with CRBN ligand 8046, HeLa, 10 μM each) was “causes degradation of BRD4; also recorded: Degradation is noted”, the BRD4 degradation (BRD4 [2]; [3]) was “causes degradation of BRD4; also recorded: Degradation is noted” and the BRD4 degradation (BRD4 [2]; [4]) was “causes degradation of BRD4; also recorded: Degradation is noted”.

`COc1ccc2c(c1)C(c1ccc(Cl)cc1)=N[C@@H](CC(=O)NCCCCNC(=O)c1ccc(O)c(O)c1)c1nnc(C)n1-2` [BRD-N5] was tested, and the “Degradation of BRD4, combination with CRBN ligand 8048” value (from here on “Degradation … with CRBN ligand 8048”) (BRD4 [1]) was “√ (A black check mark indicates efficacy of 30% to 70% or higher protein degradation)”, the BRD4 degradation (BRD4 [2]; [5]) was “there is no degradation of BRD4” and the BRD4 degradation (BRD4 [2]; [6]) was “causes degradation of BRD4; also recorded: Degradation is noted”. For the same compound, the BRD4 degradation (BRD4 [2]; [7]) was “no evidence of BRD4 degradation”.

For `COc1ccc2c(c1)C(c1ccc(Cl)cc1)=N[C@@H](CC(=O)NCCNC(=O)Cc1ccc(O)c(O)c1)c1nnc(C)n1-2` [BRD-N30], the “Degradation … with CRBN ligand 8048” value (BRD4 [1]) was “√ (A black check mark indicates efficacy of 30% to 70% or higher protein degradation)”, the BRD4 degradation (BRD4 [2]; [5]) was “there is no degradation of BRD4” and the BRD4 degradation (BRD4 [2]; [6]) was “causes degradation of BRD4”.

For `CCNC(=O)C[C@@H]1N=C(c2ccc(Cl)cc2)c2cc(OCCOCCOCCNC(=O)c3cccc(B(O)O)c3)ccc2-n2c(C)nnc21` [BRD-E42], the “Degradation … with CRBN ligand 8047” value (BRD4 [1]) was “√ (A black check mark indicates efficacy of 30% to 70% or higher protein degradation)” and the BRD4 degradation (BRD4 [2]; [3]) was “causes degradation of BRD4”.

With `COc1ccc2c(c1)C(c1ccc(Cl)cc1)=N[C@@H](CC(=O)NCCNC(=O)c1ccc(O)c(O)c1)c1nnc(C)n1-2` [BRD-N1] the “Degradation … with CRBN ligand 8048” value (BRD4 [1]) was “√ (A black check mark indicates efficacy of 30% to 70% or higher protein degradation)”, the BRD4 degradation (BRD4 [2]; [5]) was “there is no degradation of BRD4” and the BRD4 degradation (BRD4 [2]; [6]) was “causes degradation of BRD4; also recorded: Degradation is noted”.

For `COc1ccc2c(c1)C(c1ccc(Cl)cc1)=N[C@@H](CC(=O)NCCOCCOCCOCCOCCNC(=O)c1ccc(O)c(O)c1)c1nnc(C)n1-2` [BRD-N69], the “Degradation … with CRBN ligand 8048” value (BRD4 [1]) was “√ (A black check mark indicates efficacy of 30% to 70% or higher protein degradation)”, the BRD4 degradation (BRD4 [2]; [5]) was “there is no degradation of BRD4” and the BRD4 degradation (BRD4 [2]; [6]) was “causes degradation of BRD4; also recorded: Degradation is noted”. For the same compound, the BRD4 degradation (BRD4 [2]; [7]) was “no evidence of BRD4 degradation”.

`COc1ccc2c(c1)C(c1ccc(Cl)cc1)=N[C@@H](CC(=O)NCCNC(=O)Cc1ccc(B(O)O)cc1)c1nnc(C)n1-2` [BRD-E27, (4-(2-((2-(2-((4S)-6-(4-chlorophenyl)-8-methoxy-1-methyl-4H-benzo[f][1,2,4]triazolo[4,3-a][1,4]diazepin-4-yl)acetamido)ethyl)amino)-2-oxoethyl)phenyl)boronic Acid] was tested, and the “Degradation … with CRBN ligand 8047” value (BRD4 [1]) was “√ (A black check mark indicates efficacy of 30% to 70% or higher protein degradation)” and the BRD4 degradation (BRD4 [2]; [3]) was “causes degradation of BRD4”.

In the case of `COc1ccc2c(c1)C(c1ccc(Cl)cc1)=N[C@@H](CC(=O)NCCCCNC(=O)c1ccc(B(O)O)cc1)c1nnc(C)n1-2` [BRD-E5], the “Degradation … with CRBN ligand 8047” value (BRD4 [1]) is reported as “√ (A black check mark indicates efficacy of 30% to 70% or higher protein degradation)”, the “Degradation … with CRBN ligand 8066” value (BRD4 [1]) is reported as “√ (A black check mark indicates efficacy of 30% to 70% or higher protein degradation)” and the BRD4 degradation (BRD4 [2]; [3]) is reported as “causes degradation of BRD4; also recorded: Degradation is noted”. For the same compound, the BRD4 degradation (BRD4 [2]; [4]) was “causes degradation of BRD4; also recorded: Degradation is noted”.

`COc1ccc2c(c1)C(c1ccc(Cl)cc1)=N[C@@H](CC(=O)NCCNC(=O)/C=C/c1cccc(B(O)O)c1)c1nnc(C)n1-2` [BRD-E30, (3-((E)-3-((2-(2-((4S)-6-(4-chlorophenyl)-8-methoxy-1-methyl-4H-benzo[f][1,2,4]triazolo[4,3-a][1,4]diazepin-4-yl)acetamido)ethyl)amino)-3-oxoprop-1-en-1-yl)phenyl)boronic acid] was tested, and the “Degradation … with CRBN ligand 8047” value (BRD4 [1]) was “√ (A black check mark indicates efficacy of 30% to 70% or higher protein degradation)” and the “Degradation … with CRBN ligand 8066” value (BRD4 [1]) was “√ (A black check mark indicates efficacy of 30% to 70% or higher protein degradation)”.

With `CCNC(=O)C[C@@H]1N=C(c2ccc(Cl)cc2)c2cc(OCCOCCNC(=O)c3ccc(B(O)O)cc3)ccc2-n2c(C)nnc21` [BRD- E39] the “Degradation of BRD4, combination with CRBN ligand 8046” value (BRD4 [1]) was “√ (A black check mark indicates efficacy of 30% to 70% or higher protein degradation)”.

In the case of `COc1ccc2c(c1)C(c1ccc(Cl)cc1)=N[C@@H](CC(=O)NCCNC(=O)Cc1cccc(B(O)O)c1)c1nnc(C)n1-2` [BRD- E38], the “Degradation … with CRBN ligand 8047” value (BRD4 [1]) is reported as “√ (A black check mark indicates efficacy of 30% to 70% or higher protein degradation)”.

For `CCNC(=O)C[C@@H]1N=C(c2ccc(Cl)cc2)c2cc(OCCOCCOCCNC(=O)c3ccc(O)c(O)c3)ccc2-n2c(C)nnc21` [BRD- N40], the “Degradation of BRD4, combination with VHL ligand 8297” value (BRD4 [1]; Table 6, aromatic 1,2-diol BRD4 ligand + 8297) was “√ (A black check mark indicates efficacy of 30% to 70% or higher protein degradation)”.

`COc1ccc2c(c1)C(c1ccc(Cl)cc1)=N[C@@H](CC(=O)Nc1ccc(O)c(O)c1)c1nnc(C)n1-2` [BRD- N68] was tested, and the “Degradation … with CRBN ligand 8048” value (BRD4 [1]) was “√ (A black check mark indicates efficacy of 30% to 70% or higher protein degradation)”.

With `COc1ccc2c(c1)C(c1ccc(Cl)cc1)=N[C@@H](CC(=O)NCCCCCNC(=O)c1ccc(B(O)O)cc1)c1nnc(C)n1-2` [BRD- E07] the “Degradation … with CRBN ligand 8066” value (BRD4 [1]) was “√ (A black check mark indicates efficacy of 30% to 70% or higher protein degradation)”.

For `CCNC(=O)C[C@@H]1N=C(c2ccc(OCc3ccc(B(O)O)cc3)cc2)c2cc(OC)ccc2-n2c(C)nnc21` [BRD- E54], the “Degradation of BRD4, combination with VHL ligand 8305” value (BRD4 [1]; Table 3, aryl-boronic acid BRD4 ligand + 8305) was “√ (A black check mark indicates efficacy of 30% to 70% or higher protein degradation)”.
